The source made the active and inactive calls. The rule behind the calls is not given here.
Assays:
[1] = Cytotoxicity against human SNU5 cells assessed as reduction in cell survival incubated for 3 days by cell titre-glo assay; conditions: SNU-5, 72 h
[2] = Cytotoxicity against human MHCC97H cells assessed as reduction in cell survival incubated for 3 days by cell titre-glo assay; format: functional, cell-based; conditions: 72 h
NCI-H1975 = assay: Cytotoxicity against human NCI-H1975 cells assessed as reduction in cell survival incubated for 3 days by cell titre-glo assay; format: functional, cell-based; conditions: NCI-H1975, 72 h
[3] = Cytotoxicity against human HuH7 cells assessed as reduction in cell survival incubated for 3 days by cell titre-glo assay; format: functional, cell-based; conditions: Huh-7, 72 h
[4] = Antitumor activity against human MKN45 cells xenografted in nude BALB/c mouse assessed as inhibitory rate at 10 mg/kg, ig measured twice every week; format: functional; conditions: MKN-45, po, read-out: TGI
NCI-H1993 [5] = assay: Cytotoxicity against human NCI-H1993 cells assessed as reduction in cell survival incubated for 3 days by cell titre-glo assay; format: functional, cell-based; conditions: NCI-H1993, 72 h
[6] = Cytotoxicity against human HCCLM3 cells assessed as reduction in cell survival incubated for 3 days by cell titre-glo assay; format: functional, cell-based; conditions: HCCLM3, 72 h
[7] = Cytotoxicity against human MKN45 cells assessed as reduction in cell survival incubated for 3 days by cell titre-glo assay; format: functional, cell-based; conditions: MKN-45, 72 h
NCI-H1993 [8] = assay: Antitumor activity against human NCI-H1993 cells xenografted in nude BALB/c mouse assessed as inhibitory rate at 10 mg/kg, ig measured twice every week; format: functional
A549 = assay: Cytotoxicity against human A549 cells assessed as reduction in cell survival incubated for 3 days by cell titre-glo assay; format: functional, cell-based; conditions: A549, 72 h
[9] = Cytotoxicity against human MHCC97L cells assessed as reduction in cell survival incubated for 3 days by cell titre-glo assay; format: functional, cell-based; conditions: 72 h
NCI-N87 = assay: Cytotoxicity against human NCI-N87 cells assessed as reduction in cell survival incubated for 3 days by cell titre-glo assay; format: functional, cell-based; conditions: NCI-N87, 72 h
[10] = Mean residence time in Sprague-Dawley rat at 5 mg/kg; format: ADME, organism-based; conditions: in vivo
[11] = Apparent oral clearance in Sprague-Dawley rat at 5 mg/kg; format: ADME, organism-based; conditions: in vivo
[12] = Half life in Sprague-Dawley rat at 5 mg/kg; format: ADME, organism-based; conditions: in vivo
[13] = Apparent volume of distribution during terminal phase in Sprague-Dawley rat at 5 mg/kg; format: ADME, organism-based; conditions: in vivo, read-out: Vz/F
[14] = AUC in Sprague-Dawley rat at 5 mg/kg; format: ADME, organism-based; conditions: in vivo
[15] = Cmax in Sprague-Dawley rat at 5 mg/kg; format: ADME, organism-based; set-up: dose 5 mg/kg; conditions: in vivo
[16] = molecular target: Hepatocyte growth factor receptor (Homo sapiens, UniProt P08581); assay: Inhibition of c-Met (unknown origin) incubated for 1 hr by spectrophotometric analysis
NCI-H1993 [17] = assay: Antitumor activity against human NCI-H1993 cells xenografted in nude BALB/c mouse assessed as inhibitory rate at 30 mg/kg, ig measured twice every week; format: functional; conditions: NCI-H1993, po, read-out: TGI
Mus musculus [18] = assay: Toxicity in nude BALB/c mouse assessed as effect on body weight at 15 to 225 mg/kg, ig qd for treated for 28 days followed by rehabiliation for 28 days measured during compound dosing and rehabilitation period relative to vehicle control; format: organism-based; conditions: in vivo, po, 672 h
[19] = Antitumor activity against human MKN45 cells xenografted in nude BALB/c mouse assessed as inhibitory rate at 60 mg/kg, ig measured twice every week; format: functional; conditions: MKN-45, po, read-out: TGI
[20] = Acute toxicity in ig dosed nude BALB/c mouse administered as qd measured for 14 days; format: organism-based; conditions: in vivo, po
[21] = Toxicity in ig dosed nude BALB/c mouse administered as qd treated for 28 days followed by rehabilitation for 28 days; format: organism-based; conditions: in vivo, po
[22] = Antitumor activity against human MKN45 cells xenografted in nude BALB/c mouse assessed as inhibitory rate at 30 mg/kg, ig measured twice every week; format: functional; conditions: MKN-45, po, read-out: TGI
Mus musculus [23] = assay: Toxicity in nude BALB/c mouse assessed as clinical pathologies at 15 to 225 mg/kg, ig qd for treated for 28 days followed by rehabiliation for 28 days measured on day 56 relative to vehicle control; format: organism-based; conditions: in vivo, po, 672 h
Mus musculus [24] = assay: Acute toxicity in nude BALB/c mouse assessed as clinical pathologies at 300 to 600 mg/kg, ig qd after 28 days; format: organism-based; conditions: in vivo, po, 672 h
NCI-H1993 [25] = assay: Antitumor activity against human NCI-H1993 cells xenografted in nude BALB/c mouse assessed as inhibitory rate at 60 mg/kg, ig measured twice every week; format: functional; conditions: NCI-H1993, po, read-out: TGI
[26] = molecular target: RAC-alpha serine/threonine-protein kinase (Homo sapiens, UniProt P31749); conditions: Huh-7, 100 to 1000 nM
Description: Inhibition of AKT phosphorylation in human HuH7 cells at 100 to 1000 nM after 6 to 24 hrs by Western blot analysis

Huh-7 = assay: Inhibition of ERK phosphorylation in human HuH7 cells at 100 to 1000 nM after 6 to 24 hrs by Western blot analysis; format: cell-based
NCI-H1993 [27] = assay: Antitumor activity against human NCI-H1993 cells xenografted in ig dosed nude BALB/c mouse measured twice every week; format: functional, organism-based
MKN-45 = assay: Antitumor activity against human MKN45 cells xenografted in ig dosed nude BALB/c mouse measured twice every week; format: functional, organism-based

COCCN1C(=O)COc2c1cnc1ccc(Sc3nnc4ccc(-c5cnn(C)c5)cn34)cc21
IC50 [1]: 19.1 nM

Cn1cc(-c2cc(F)c3nnc(Sc4ccc5ncc6c(c5c4)OCCN6C(=O)C4CC4)n3c2)cn1
IC50 [1]: 12.3 nM

Cn1cc(-c2ccc3nnc(Sc4ccc5ncccc5c4)n3n2)cn1 [SGX-523]
IC50 [2]: 11 nM | IC50 (NCI-H1975): > 10000 nM | IC50 [3]: > 10000 nM | inhibition in vivo at 10 mg/kg [4]: 11.2% | IC50 (NCI-H1993 [5]): 25 nM | IC50 [6]: 24 nM | IC50 [7]: 15 nM | TGI (NCI-H1993 [8]): inactive | IC50 [1]: 3.9 nM | IC50 (A549): > 10000 nM | IC50 [9]: 18 nM | IC50 (NCI-N87): > 10000 nM

CN1C(=O)COc2c1cnc1ccc(Sc3nnc4ccc(-c5cnn(C)c5)cn34)cc21
IC50 [1]: 3 nM

Cn1cc(-c2ccc3nnc(Sc4ccc5ncc6c(c5c4)OCC(=O)N6)n3c2)cn1
IC50 [1]: 85.8 nM

Cn1cc(-c2ccc3nnc(C(F)(F)c4ccc5ncccc5c4)n3n2)cn1 [JNJ-38877605]
MRT [10]: 4.9 h | CL/F [11]: 5.81 mL/min/kg | half-life [12]: 2.97 h | Vd/F [13]: 1.48 L/kg | AUC [14]: 17300 ng·h/mL | Cmax [15]: 2370 ng/mL

CN1C(=O)COc2c1cnc1ccc(Sc3nnc4c(OC(F)F)cc(-c5cnn(C)c5)cn34)cc21
IC50 [16]: > 1000 nM | IC50 [1]: > 1000 nM

CN1C(=O)COc2c1cnc1ccc(Sc3nnc4c(F)cc(-c5cnn(C)c5)cn34)cc21.CS(=O)(=O)O
CL/F [11]: 0.68 mL/min/kg | inhibition in vivo at 30 mg/kg (NCI-H1993 [17]): 19.5% | Activity (Mus musculus [18]): Non-toxic | inhibition in vivo at 60 mg/kg [19]: 61.4% | NOAEL at 336 h [20]: 600 mg/kg/day | NOAEL at 672 h [21]: 225 mg/kg/day | inhibition in vivo at 30 mg/kg [22]: 34.2% | inhibition in vivo at 10 mg/kg [4]: 29.5% | Activity (Mus musculus [23]): Non-toxic | Activity (Mus musculus [24]): Non-toxic | inhibition in vivo at 10 mg/kg (NCI-H1993 [8]; NCI-H1993, po, read-out: TGI): 24.4% | inhibition in vivo at 60 mg/kg (NCI-H1993 [25]): 24.9%

Cn1cc(-c2cc(F)c3nnc(Sc4ccc5ncc6c(c5c4)OC[C@H]4CCCN64)n3c2)cn1
IC50 [1]: 29.2 nM

Cn1cc(-c2cc(F)c3nnc(Sc4ccc5ncc6c(c5c4)OC[C@@H]4CCCN64)n3c2)cn1
IC50 [1]: 327 nM

Cn1cc(-c2cc(F)c3nnc(Sc4ccc5ncc6c(c5c4)OCC(=O)N6)n3c2)cn1
IC50 [1]: 17.8 nM

CN1C(=O)COc2c1cnc1ccc(Sc3nnc4c(F)cc(-c5cnn(C)c5)cn34)cc21
inhibition [26]: inactive | inhibition (Huh-7): inactive | TGI (NCI-H1993 [27]): Dose-dependent effect | TGI (MKN-45): Dose-dependent effect

COCCN1C(=O)COc2c1cnc1ccc(Sc3nnc4c(F)cc(-c5cnn(C)c5)cn34)cc21
IC50 [1]: 4.5 nM
